{"source": "patent US12161641B2", "about": "“Treatments and prevention of opioid neonatal abstinence syndrome” (Ohio State Innovation Foundation, priority 2016, dated 2024)", "assay": "Time-course of drug levels in adult and embryonic mouse plasma, brain and liver after a single subcutaneous injection (LC-MS/MS)", "settings": "mouse, 10 mg/kg", "key": {"[1]": {"settings": "female, brain (adult), subcutaneous"}, "[2]": {"settings": "female, liver (adult), subcutaneous"}}, "data": [{"compound": "O=C1CC[C@@]2(O)[C@H]3Cc4ccc(O)c5c4[C@@]2(CCN3CC2CC2)[C@H]1O5", "note": "[Naltrexone, naltrexone, reference compound]", "values": [{"measurement": "concentration at 20 min", "setting": "[1]", "value": 3230, "unit": "ng/g"}, {"measurement": "concentration at 45 min", "setting": "[1]", "value": 1470, "unit": "ng/g"}, {"measurement": "concentration at 2 h", "setting": "[1]", "value": 250, "unit": "ng/g"}, {"measurement": "concentration at 4 h", "setting": "[1]", "value": 18, "unit": "ng/g"}, {"measurement": "concentration at 20 min", "setting": "female, in vivo", "value": 1880, "unit": "ng/g"}, {"measurement": "concentration at 45 min", "setting": "female, in vivo", "value": 620, "unit": "ng/g"}, {"measurement": "concentration at 2 h", "setting": "female, in vivo", "value": 130, "unit": "ng/g"}, {"measurement": "concentration at 4 h", "setting": "female, in vivo", "value": 4, "unit": "ng/g"}, {"measurement": "concentration at 20 min", "setting": "[2]", "value": 2100, "unit": "ng/g"}, {"measurement": "concentration at 45 min", "setting": "[2]", "value": 1390, "unit": "ng/g"}, {"measurement": "concentration at 2 h", "setting": "[2]", "value": 360, "unit": "ng/g"}, {"measurement": "concentration at 4 h", "setting": "[2]", "value": 32, "unit": "ng/g"}, {"measurement": "concentration at 45 min", "setting": "embryo brain, subcutaneous", "value": 2610, "unit": "ng/g"}, {"measurement": "concentration at 2 h", "setting": "embryo brain, subcutaneous", "value": 500, "unit": "ng/g"}, {"measurement": "concentration at 45 min", "setting": "embryo liver, subcutaneous", "value": 3190, "unit": "ng/g"}, {"measurement": "concentration at 2 h", "setting": "embryo liver, subcutaneous", "value": 620, "unit": "ng/g"}]}]}
